Measured values taken from paper PMC10814857, “Functional Classification and Interaction Selectivity Landscape of the Human SH3 Domain Superfamily” (Cells, 2024).
Peptide text beside a SMILES is read from it.

Experiments:
Assay in all cases: Fluorescence polarization SH3 domain-PRP binding
[1] = target: T1, NCK1-1 SH3 domain (aa 2-61) (Homo sapiens, UniProt P16333); settings: FP, 0.2 µM fluorescein-labeled peptide, SH3 domain 0-200 µM, Tris/HCl pH 7.5, 25 °C, quadratic fit, read-out: Kd
T1 construct: 2-61; GST (N); made in house; host or cells: Escherichia coli CodonPlus, Rosetta, BL21(DE3)
Method: (§1) The interaction between fluorescein-labeled proline-rich peptides (0.2 µM) and increasing concentrations of SH3 domains (ranging from 0 to 200 µM) was measured in a buffer (containing 30 mM Tris/HCl (pH 7.5), 5 mM MgCl2, and 3 mM DTT at 25 °C) in a total volume of 200 µL using a Fluoromax 4 fluorimeter in polarization mode and a quartz glass fluorescence cuvette (Hellma Ultra-Micro Cuvette 105.250-QS, Thermo Fisher Scientific, Waltham, MA USA). Excitation was performed at 470 nm and emission was measured at 560 nm. Dissociation constants (Kd) were determined by fitting the concentration-dependent binding curve to a quadratic ligand binding equation.
(§2) Fluorescence polarization measurements were performed to determine the binding affinities of SH3 domain–PRP interaction pairs from the dot blot analysis. SH3 proteins were titrated at increasing concentrations against fluorescent PRPs, which were kept at a constant concentration of 0.2 µM. GRB2-2^W193K, which is defective in the binding of PRPs such as RP1, was used as a negative control as previously described. […] The resulting data (Figure S6) allowed the evaluation of equilibrium dissociation constants (Kd) for 45 interactions between the SH3 domains and the PRPs (Figure 2B; Table S6).
(§3) Figure S6. Interactions of the SH3 domains with fluorescent PRPs measured by fluorescence polarization.
(§4) Fluorescent peptides (0.2 µM) were titrated with increasing concentrations of the corresponding SH3 domains.
(§5) GRB2-2W193K, defective in the binding of PRPs such as RP1, was used as a negative control as previously described. The x-axis represents SH3 domain concentrations as GST fusion proteins in µM, while the y-axis represents fluorescence polarization. The equilibrium dissociation constants (Kd) for the respective measurements were determined by fitting the titration curves to a quadratic ligand-binding equation (solid lines). All Kd values are […]
(§6) Error bars are derived from the fitting errors.

[2] = target: T2, SRC SH3 domain (aa 77-140) (Homo sapiens, UniProt P12931); settings: FP, 0.2 µM fluorescein-labeled peptide, SH3 domain 0-200 µM, Tris/HCl pH 7.5, 25 °C, quadratic fit
T2 construct: 77-140; GST (N); made in house; host or cells: Escherichia coli CodonPlus, Rosetta, BL21(DE3)
Method: as §1, §2, §3, §4, §5, §6

[3] = target: T3, SH3PXD2A-1 SH3 domain (aa 166-225) (Homo sapiens, UniProt Q5TCZ1); settings: FP, 0.2 µM fluorescein-labeled peptide, SH3 domain 0-200 µM, Tris/HCl pH 7.5, 25 °C, quadratic fit
T3 construct: 166-225; GST (N); made in house; host or cells: Escherichia coli CodonPlus, Rosetta, BL21(DE3)
T3 sequence (Q5TCZ1 166-225): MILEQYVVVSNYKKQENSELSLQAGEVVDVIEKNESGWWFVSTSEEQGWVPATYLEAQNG
Method: as §1, §2, §3, §4, §5, §6

[4] = target: T4, RIMBP3B-1 SH3 domain (aa 832-899) (Homo sapiens, UniProt A6NNM3); settings: FP, 0.2 µM fluorescein-labeled peptide, SH3 domain 0-200 µM, Tris/HCl pH 7.5, 25 °C, quadratic fit
T4 construct: 832-899; GST (N); made in house; host or cells: Escherichia coli CodonPlus, Rosetta, BL21(DE3)
T4 sequence (A6NNM3 832-899): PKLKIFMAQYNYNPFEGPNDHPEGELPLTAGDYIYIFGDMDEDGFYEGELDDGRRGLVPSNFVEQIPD
Method: as §1, §2, §3, §4, §5, §6

[5] = target: T5, NCK1-3 SH3 domain (aa 190–252) (Homo sapiens, UniProt P16333); settings: NCK1-3 (wt); FP, 0.2 µM fluorescein-labeled peptide, SH3 domain 0-200 µM, Tris/HCl pH 7.5, 25 °C, quadratic fit; read-out: Kd
T5 construct: 190–252; GST (N); made in house; host or cells: Escherichia coli CodonPlus, Rosetta, BL21(DE3)
Method: as §1, §2, §3, §4, §5, §6

[6] = target: T6, ITSN1-4 SH3 domain (aa 1070-1138) (Homo sapiens, UniProt Q15811); settings: FP, 0.2 µM fluorescein-labeled peptide, SH3 domain 0-200 µM, Tris/HCl pH 7.5, 25 °C, quadratic fit
T6 construct: 1070-1138; GST (N); made in house; host or cells: Escherichia coli CodonPlus, Rosetta, BL21(DE3)
T6 sequence (Q15811 1070-1138): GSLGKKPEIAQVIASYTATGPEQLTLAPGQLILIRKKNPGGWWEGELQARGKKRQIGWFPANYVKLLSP
Method: as §1, §2, §3, §4, §5, §6

[7] = target: T7, ITSN1-5 SH3 domain (aa 1155-1214) (Homo sapiens, UniProt Q15811); settings: FP, 0.2 µM fluorescein-labeled peptide, SH3 domain 0-200 µM, Tris/HCl pH 7.5, 25 °C, quadratic fit
T7 construct: 1155-1214; GST (N); made in house; host or cells: Escherichia coli CodonPlus, Rosetta, BL21(DE3)
T7 sequence (Q15811 1155-1214): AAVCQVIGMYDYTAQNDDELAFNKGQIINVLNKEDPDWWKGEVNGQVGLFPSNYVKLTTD
Method: as §1, §2, §3, §4, §5, §6

[8] = target: T8, RASA1 SH3 domain (aa 279–341) (Homo sapiens, UniProt P20936); settings: FP, 0.2 µM fluorescein-labeled peptide, SH3 domain 0-200 µM, Tris/HCl pH 7.5, 25 °C, quadratic fit
T8 construct: 279–341; GST (N); made in house; host or cells: Escherichia coli CodonPlus, Rosetta, BL21(DE3)
T8 sequence (P20936 279-341): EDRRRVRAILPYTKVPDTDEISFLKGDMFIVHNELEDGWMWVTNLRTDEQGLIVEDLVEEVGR
Method: as §1, §2, §3, §4, §5, §6

[9] = target: T9, NCK1-2 SH3 domain (aa 106-165) (Homo sapiens, UniProt P16333); settings: FP, 0.2 µM fluorescein-labeled peptide, SH3 domain 0-200 µM, Tris/HCl pH 7.5, 25 °C, quadratic fit, read-out: Kd
T9 construct: 106-165; GST (N); made in house; host or cells: Escherichia coli CodonPlus, Rosetta, BL21(DE3)
Method: as §1, §2, §3, §4, §5, §6

[10] = target: T10, SH3GLB1 SH3 domain (aa 305-365) (Homo sapiens, UniProt Q9Y371); settings: FP, 0.2 µM fluorescein-labeled peptide, SH3 domain 0-200 µM, Tris/HCl pH 7.5, 25 °C, quadratic fit
T10 construct: 305-365; GST (N); made in house; host or cells: Escherichia coli CodonPlus, Rosetta, BL21(DE3)
T10 sequence (Q9Y371 305-365): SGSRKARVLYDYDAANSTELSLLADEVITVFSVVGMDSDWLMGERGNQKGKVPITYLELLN
Method: as §1, §2, §3, §4, §5, §6

[11] = target: T11, SNX9 SH3 domain (aa 1-62) (Homo sapiens, UniProt Q9Y5X1); settings: FP, 0.2 µM fluorescein-labeled peptide, SH3 domain 0-200 µM, Tris/HCl pH 7.5, 25 °C, quadratic fit
T11 construct: 1-62; GST (N); made in house; host or cells: Escherichia coli CodonPlus, Rosetta, BL21(DE3)
Method: as §1, §2, §3, §4, §5, §6

[12] = target: T12, SORBS1-1 SH3 domain (aa 793-852) (Homo sapiens, UniProt Q9BX66); settings: FP, 0.2 µM fluorescein-labeled peptide, SH3 domain 0-200 µM, Tris/HCl pH 7.5, 25 °C, quadratic fit
T12 construct: 793-852; GST (N); made in house; host or cells: Escherichia coli CodonPlus, Rosetta, BL21(DE3)
T12 sequence (Q9BX66 793-852): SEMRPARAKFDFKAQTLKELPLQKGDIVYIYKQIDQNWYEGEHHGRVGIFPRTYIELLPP
Method: as §1, §2, §3, §4, §5, §6

T2 sequence (P12931 77-140 limits assumed): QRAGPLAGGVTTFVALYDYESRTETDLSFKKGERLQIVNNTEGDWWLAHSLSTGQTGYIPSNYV
T11 sequence (Q9Y5X1 1-62): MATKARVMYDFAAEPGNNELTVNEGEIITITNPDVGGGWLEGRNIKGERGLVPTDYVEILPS

Row | SMILES | Kd [1] [µM] | Kd [2] [µM] | Kd [3] [µM] | Kd [4] [µM] | Kd [5] [µM] | Kd [6] [µM] | Kd [7] [µM] | Kd [8] [µM] | Kd [9] [µM] | Kd [10] [µM] | Kd [11] [µM] | Kd [12] [µM]
1 | CC(C)C[C@H](NC(=O)[C@@H]1CCCN1C(=O)[C@@H](NC(=O)[C@H](CCCNC(=N)N)NC(=O)[C@@H]1CCCN1C(=O)[C@H](CO)NC(=O)[C@H](CC(N)=O)NC(=O)[C@@H]1CCCN1C(=O)[C@H](C)NC(=O)[C@@H](N)CO)[C@@H](C)O)C(=O)N[C@H](C(=O)N1CCC[C@H]1C(=O)N1CCC[C@H]1C(=O)N1CCC[C@H]1C(=O)N[C@@H](C)C(=O)N[C@@H](CO)C(=O)O)[C@@H](C)O [Peptide P1] (H-SAPNSPRTPLTPPPAS-OH) | > 200 | > 200 | > 200 | > 200 | > 200 | > 200 | 23 | > 200 | > 200 | > 200 | > 200 | > 200
2 | CC(C)C[C@H](NC(=O)[C@@H](NC(=O)[C@@H](N)C(C)C)[C@@H](C)O)C(=O)N1CCC[C@H]1C(=O)N[C@@H](Cc1c[nH]cn1)C(=O)NCC(=O)N1CCC[C@H]1C(=O)N[C@@H](CCCNC(=N)N)C(=O)N[C@@H](CO)C(=O)N[C@@H](C)C(=O)O [Peptide P2] (H-VTLPHGPRSA-OH) | > 200 | > 200 | 44 | 21 | > 200 | > 200 | > 200 | > 200 | > 200 | > 200 | > 200 | > 200
3 | CC[C@H](C)[C@H](NC(=O)[C@H](CCCCN)NC(=O)[C@H](CO)NC(=O)[C@@H]1CCCN1C(=O)[C@H](CO)NC(=O)[C@H](CO)NC(=O)[C@H](CCC(=O)O)NC(=O)[C@H](C)NC(=O)[C@@H]1CCCN1C(=O)[C@H](C)NC(=O)[C@H](CO)NC(=O)[C@H](CCC(=O)O)NC(=O)[C@@H]1CCCN1C(=O)[C@H](CCCNC(=N)N)NC(=O)[C@H](CCCNC(=N)N)NC(=O)[C@H](CCCNC(=N)N)NC(=O)[C@@H]1CCCN1C(=O)[C@@H]1CCCN1C(=O)[C@@H](NC(=O)[C@@H]1CCCN1C(=O)[C@@H]1CCCN1C(=O)[C@@H]1CCCN1C(=O)[C@@H](NC(=O)[C@@H]1CCCN1C(=O)[C@@H](NC(=O)[C@@H](N)CCC(=O)O)C(C)C)C(C)C)C(C)C)C(=O)O [Peptide P3] (H-EVPVPPPVPPRRRPESAPAESSPSKI-OH) | > 200 | 2 | 18 | > 200 | > 200 | > 200 | > 200 | > 200 | > 200 | > 200 | > 200 | > 200
4 | CC[C@H](C)[C@H](NC(=O)[C@H](C)NC(=O)[C@@H]1CCCN1C(=O)[C@@H]1CCCN1C(=O)[C@H](CO)NC(=O)[C@H](CC(=O)O)NC(=O)[C@@H](N)CC(C)C)C(=O)N1CCC[C@H]1C(=O)N1CCC[C@H]1C(=O)N[C@@H](CCCNC(=N)N)C(=O)N[C@@H](CCC(N)=O)C(=O)N1CCC[C@H]1C(=O)N[C@H](C(=O)N[C@@H](CO)C(=O)N[C@@H](CCCCN)C(=O)O)[C@@H](C)O [Peptide P4] (H-LDSPPAIPPRQPTSK-OH) | > 200 | > 200 | > 200 | > 200 | > 200 | > 200 | 12 | > 200 | > 200 | > 200 | > 200 | > 200
5 | CC[C@H](C)[C@H](N)C(=O)N[C@@H](CO)C(=O)N[C@@H](CC(=O)O)C(=O)N1CCC[C@H]1C(=O)N1CCC[C@H]1C(=O)N[C@@H](CCC(=O)O)C(=O)N[C@@H](CO)C(=O)N1CCC[C@H]1C(=O)N1CCC[C@H]1C(=O)N[C@@H](CC(C)C)C(=O)N[C@@H](CC(C)C)C(=O)N1CCC[C@H]1C(=O)N1CCC[C@H]1C(=O)N[C@@H](CCCNC(=N)N)C(=O)N[C@@H](CCC(=O)O)C(=O)N1CCC[C@H]1C(=O)N[C@H](C(=O)N[C@@H](CCCNC(=N)N)C(=O)N[C@H](C(=O)N1CCC[C@H]1C(=O)N[C@@H](CC(=O)O)C(=O)N[C@H](C(=O)O)C(C)C)[C@@H](C)O)C(C)C [Peptide P5] (H-ISDPPESPPLLPPREPVRTPDV-OH) | > 200 | > 200 | > 200 | > 200 | > 200 | > 200 | > 200 | > 200 | > 200 | > 200 | > 200 | > 200
6 | CC(C)C[C@H](NC(=O)[C@H](Cc1c[nH]cn1)NC(=O)[C@H](CC(C)C)NC(=O)[C@@H]1CCCN1C(=O)[C@H](CO)NC(=O)[C@H](CO)NC(=O)[C@@H](N)CO)C(=O)N[C@@H](CCC(N)=O)C(=O)N1CCC[C@H]1C(=O)N1CCC[C@H]1C(=O)N1CCC[C@H]1C(=O)N[C@@H](CC(C)C)C(=O)NCC(=O)N[C@@H](CCCCN)C(=O)N[C@@H](CCCCN)C(=O)O [Peptide P6] (H-SSSPLHLQPPPLGKK-OH; N-terminus and C-terminus assumed) | > 200 | > 200 | > 200 | > 200 | > 200 | > 200 | > 200 | > 200 | > 200 | > 200 | > 200 | > 200
